# Laboratory results: patent US12304912B2, “Fused bicyclic RAF inhibitors and methods for use thereof” (Jazz Pharmaceuticals Ireland Limited, priority 2020, dated 2025)
# Where a name gives a salt, the structure may show the parent alone. Read-outs that look alike come from different tables or passages of the source.
# Legend:
# [1] = test system: RAF dimers in HCT-116 cells; test: HCT-116 AlphaLISA SureFire pERK1/2 cellular assay (dimer); format: cell-based; details: Homo sapiens
# Summary of the method: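 HCT-116 (KRAS G13D) cells, 30,000/well, pretreated 1 h with 1 μM Encorafenib to induce RAF dimers, washed, then dosed 1 h at 37° C with compound (10-point, top 10 μM, 1/2 log steps) in growth medium. pERK1/2 (T202/Y204) measured by AlphaLISA SureFire; absolute IC50 versus DMSO control.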
# [2] = Plasma protein binding assay, human plasma (hPPB); format: in vitro ADME; details: 5 μM
# Summary of the method: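 Equilibrium dialysis of 5 μM compound in previously frozen human or mouse plasma against phosphate buffer, 4 h at 37 °C. Both chambers quantified by LC-MS/MS; % free = (1−((PC−PF)/PC))×100.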
# [3] = Microsomal stability assay, mouse liver microsomes (MLM); format: in vitro ADME; details: 0.5 mg/mL protein, 1 μM substrate
# Summary of the method: (§1)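 Half-life and CLint come from the ln(% remaining)–time slope, with remaining compound quantified by LC-MS/MS after ice-cold solvent quench of timed samples. Incubations used 1 μM test compound and 0.5 mg·mL^−1 human or mouse liver microsomal protein at 37° C.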
# [4] = Microsomal stability assay, human liver microsomes (HLM); format: in vitro ADME; details: 0.5 mg/mL protein, 1 μM substrate
# Summary of the method: as §1
# [5] = test system: constitutive ERK phosphorylation in WiDr cells; test: WiDr AlphaLISA SureFire pERK1/2 cellular assay; format: cell-based, human; details: Homo sapiens, WiDr cells, 2 hr, read-out: pERK WiDr (2 hr) Abs pIC50 (converted)
# Procedure: The human HCT-116 colorectal carcinoma cell line (ATCC CCL-247) endogenously expresses the KRAS^G13D mutation, which leads to constitutive activation of the MAP kinase pathway and phosphorylation of ERK. […] Assay read outs took place 2 or 24 hours after dosing with compounds. On the first day, HCT-116 cells were harvested, resuspended in growth medium (McCoys5A with Glutamax (Life Technologies 36600021) and 10% heat-inactivated fetal bovine serum (Sigma F9665)), and counted. Cells were plated in 100 μl per well in each well of a 96-well culture dish (Sigma CLS3598) to a final density of 30,000 (2 hr read) or 15,000 (24 hr read) cells per well and incubated over night at 37° C. and 5% CO2. On day 2, the growth medium was exchanged for dosing medium (McCoys5A with Glutamax (Life Technologies 36600021) and 1% heat-inactivated fetal bovine serum (Sigma F9665)) and the cells were dosed with compounds to produce a 10-point dose response, where the top concentration was 1 μM and subsequent concentrations were at 1/3 log dilution intervals. A matched DMSO control was included. The cells were subsequently incubated for either 2 or 24 hours at 37° C. and 5% CO2. After incubation, media was removed and the cells were incubated with lysis buffer containing phosphatase inhibitors for 15 minutes at room temperature. Cell lysates were transferred to a 12 area 96 well white Optiplate™ (Perkin Elmer 6005569) and incubated with anti-mouse IgG acceptor beads, a biotinylated anti-ERK1/2 rabbit antibody recognizing both phosphorylated and non-phosphorylated ERK1/2, a mouse antibody targeted to the Thr202/Tyr204 epitope and recognizing phosphorylated ERK proteins only, and streptavidin-coated donor beads. The biotinylated antibody binds to the streptavidin-coated donor beads and the phopsho-ERK1/2 antibody binds to the acceptor beads. Plates were read on an EnVision reader (Perkin Elmer) and excitation of the beads at 680 nm with a laser induced the release of singlet oxygen molecules from the donor beads that trigger energy transfer to the acceptor beads in close proximity, producing a signal that can be measured at […]. Both antibodies bound to phosphorylated ERK proteins, bringing the donor and acceptor beads into close proximity. All data were analyzed using the Dotmatics or GraphPad Prism software packages. Inhibition of ERK phosphorylation was assessed by determination of the absolute IC50 value, which is defined as the concentration of compound required to decrease the level of phosphorylated ERK proteins by 50% when compared to DMSO control.
# WiDr AlphaLISA SureFire pERK1/2 Cellular Assay
# The human WiDr colorectal adenocarcinoma cell line (ATCC CCL-218) endogenously expresses the BRAF^V600E mutation, which leads to constitutive activation of the MAP kinase pathway and phosphorylation of ERK. […] The main procedure is essentially the same as for HCT-116 cells (above), with the following adjustments to the growth medium (Eagle's Minimum Essential Medium (Sigma M2279) with 1× Glutamax (Life Technologies 35050038), 1× Sodium-Pyruvate (Sigma S8636), and 10% heat-inactivated fetal bovine serum (Sigma F9665)), the dosing medium (Eagle's Minimum Essential Medium (Sigma M2279) with 1× Glutamax (Life Technologies 35050038), 1× Sodium-Pyruvate (Sigma S8636), and 1% heat-inactivated fetal bovine serum (Sigma F9665)), and the seeding densities (2 hr: 50,000 cells per well; 24 hr: 35,000 cells per well). Moreover, the compounds were dosed in 1/2 log dilution intervals with the top concentration of 10 μM.
# [6] = HCT-116, HCT116 cells, dimer, 1 hr, read-out: pERK HCT116 dimer (1 hr) plC50 (converted)
# [7] = equilibrium dialysis 4 hours at 37° C.
# [8] = HCT-116, HCT116 cells pre-dosed with 1 μM Encorafenib, 1 hr, read-out: pERK HCT116 dimer (1 hr) pIC50 (converted)
# [9] = equilibrium dialysis 4 hours 37° C.
SMILES,"IC50 [1, 6]","hPPB (% free) [2, 7]",microsomal CLint at 1 μM ([3]; 37° C.),microsomal CLint at 1 μM ([4]; 37° C.),IC50 ([5]; Abs),"IC50 [1, 8]","hPPB (% free) [2, 9]",microsomal CLint at 1 μM [3],microsomal CLint at 1 μM [4],IC50 ([5]; absolute IC50),MLM (CLint) ([3]; 37° C.),"IC50 ([1]; HCT-116, 1 h, read-out: pERK HCT116 dimer (1 hr) pIC50 (converted))"
"O=C1CCc2c(Oc3ccc4c(c3)CC(c3nc(-c5ccnc(C(F)F)c5)c[nH]3)CO4)ccnc2N1 (centres unmarked) [Compound 101, 5-[3-[4-[2-(difluoromethyl)-4-pyridyl]-1H-imidazol-2-yl]chroman-6-yl]oxy-3,4-dihydro-1H-1,8-naphthyridin-2-one]",63.1 nM,1.6 % free,15.2 µL/min/mg,29.6 µL/min/mg,182 nM,–,–,–,–,–,–,–
"COc1cc(-c2c[nH]c(C3COc4ccc(Oc5ccnc6c5CCC(=O)N6)cc4C3)n2)ccn1 (centres unmarked) [Compound 19, 5-[3-[4-(2-methoxy-4-pyridyl)-1H-imidazol-2-yl]chroman-6-yl]oxy-3,4-dihydro-1H-1,8-naphthyridin-2-one]",–,–,–,–,–,347 nM,1.9 % free,23 µL/min/mg,27.8 µL/min/mg,1100 nM,–,–
"O=C1CCc2c(Oc3ccc4c(c3)CC(c3nc5cc(C(F)(F)F)ccc5[nH]3)CO4)ccnc2N1 (centres unmarked) [Compound 22, 5-[3-[6-(trifluoromethyl)-1H-benzimidazol-2-yl]chroman-6-yl]oxy-3,4-dihydro-1H-1,8-naphthyridin-2-one]",–,–,–,–,–,155 nM,<0.1 % free,25.1 µL/min/mg,35.9 µL/min/mg,120 nM,–,–
"O=C1CCc2c(Oc3ccc4c(c3)CC(c3nc(-c5cccc(C(F)(F)F)c5)c[nH]3)CO4)ccnc2N1 (centres unmarked) [Compound 12, 5-[3-[4-[3-(trifluoromethyl)phenyl]-1H-imidazol-2-yl]chroman-6-yl]oxy-3,4-dihydro-1H-1,8-naphthyridin-2-one]",–,–,–,–,–,229 nM,<0.1 % free,15.7 µL/min/mg,88.6 µL/min/mg,123 nM,–,–
CC1CC1C(=O)Nc1cc(Oc2ccc3c(c2)CC(c2nc(-c4ccccc4)c[nH]2)CO3)ccn1 (centres unmarked) [Compound 157],174 nM,<0.1 % free,–,35.7 µL/min/mg,275 nM,–,–,–,–,–,277 µL/min/mg,–
O=C1CCc2c(Oc3ccc4c(c3)CN(c3nc5cc(C(F)(F)F)ccc5[nH]3)CC4)ccnc2N1 [Compound 160],347 nM,0.3 % free,4.5 µL/min/mg,2.7 µL/min/mg,219 nM,–,–,–,–,–,–,–
"Cc1cc(-c2c[nH]c(C3COc4ccc(Oc5ccnc6c5CCC(=O)N6)cc4C3)n2)n(C2CC2)n1 (centres unmarked) [Compound 114, 5-[3-[4-(2-cyclopropyl-5-methyl-pyrazol-3-yl)-1H-imidazol-2-yl]chroman-6-yl]oxy-3,4-dihydro-1H-1,8-naphthyridin-2-one]",363 nM,1.2 % free,12.6 µL/min/mg,38.5 µL/min/mg,1350 nM,–,–,–,–,–,–,–
"O=C1CCc2c(Oc3ccc4c(c3)CC(c3nc(C5CCOCC5)c[nH]3)CO4)ccnc2N1 (centres unmarked) [Compound 132, 5-[3-(4-tetrahydropyran-4-yl-1H-imidazol-2-yl)chroman-6-yl]oxy-3,4-dihydro-1H-1,8-naphthyridin-2-one]",427 nM,2.6 % free,9.3 µL/min/mg,20.7 µL/min/mg,832 nM,–,–,–,–,–,–,–
"Cc1cc(-c2c[nH]c(C3COc4ccc(Oc5ccnc6c5CCC(=O)N6)cc4C3)n2)n(C(C)C)n1 (centres unmarked) [Compound 112, 5-[3-[4-(2-isopropyl-5-methyl-pyrazol-3-yl)-1H-imidazol-2-yl]chroman-6-yl]oxy-3,4-dihydro-1H-1,8-naphthyridin-2-one]",257 nM,1.4 % free,55.5 µL/min/mg,81.5 µL/min/mg,1000 nM,–,–,–,–,–,–,–
O=C(CN1CC(O)C1)Nc1cc(Oc2ccc3c(c2)CC(c2nc(-c4ccccc4)c[nH]2)CO3)ccn1 (centres unmarked) [Compound 153],126 nM,0.39 % free,92.9 µL/min/mg,19.2 µL/min/mg,288 nM,–,–,–,–,–,–,–
"COc1csc(-c2c[nH]c(C3COc4ccc(Oc5ccnc6c5CCC(=O)N6)cc4C3)n2)c1 (centres unmarked) [Compound 122, 5-[3-[5-(4-methoxy-2-thienyl)-1H-imidazol-2-yl]chroman-6-yl]oxy-3,4-dihydro-1H-1,8-naphthyridin-2-one]",162 nM,0.23 % free,70.8 µL/min/mg,80.3 µL/min/mg,355 nM,–,–,–,–,–,–,–
"Cc1cc(-c2c[nH]c(C3COc4ccc(Oc5ccnc6c5CCC(=O)N6)cc4C3)n2)n(C)n1 (centres unmarked) [Compound 106, 5-[3-[4-(2,5-dimethylpyrazol-3-yl)-1H-imidazol-2-yl]chroman-6-yl]oxy-3,4-dihydro-1H-1,8-naphthyridin-2-one]",123 nM,2.4 % free,17.1 µL/min/mg,10.5 µL/min/mg,589 nM,–,–,–,–,–,–,–
"O=C1CCc2c(Oc3ccc4c(c3)CC(c3nc(-c5cncc(C(F)(F)F)c5)c[nH]3)CO4)ccnc2N1 (centres unmarked) [Compound 103, 5-[3-[4-[5-(trifluoromethyl)-3-pyridyl]-1H-imidazol-2-yl]chroman-6-yl]oxy-3,4-dihydro-1H-1,8-naphthyridin-2-one]",107 nM,0.6 % free,4.4 µL/min/mg,11.6 µL/min/mg,269 nM,–,–,–,–,–,–,–
"O=C1CCc2c(Oc3ccc4c(c3)CN(c3nc(-c5ccccc5)n[nH]3)CC4)ccnc2N1 [Compound 44, 5-[[2-(3-phenyl-1H-1,2,4-triazol-5-yl)-3,4-dihydro-1H-isoquinolin-7-yl]oxy]-3,4-dihydro-1H-1,8-naphthyridin-2-one hydrochloride]",–,–,–,–,–,–,0.3 % free,11 µL/min/mg,14.2 µL/min/mg,355 nM,–,288 nM
"O=C1CCc2c(Oc3ccc4c(c3)CC(c3nc5ccncc5[nH]3)CO4)ccnc2N1 (centres unmarked) [Compound 134, 5-[3-(3H-imidazo[4,5-c]pyridin-2-yl)chroman-6-yl]oxy-3,4-dihydro-1H-1,8-naphthyridin-2-one]",32.4 nM,6.1 % free,72.4 µL/min/mg,13.6 µL/min/mg,6170 nM,–,–,–,–,–,–,–
"O=C1CCc2c(Oc3ccc4c(c3)CC(c3nc(-c5cncc(C(F)F)c5)c[nH]3)CO4)ccnc2N1 (centres unmarked) [Compound 105, 5-[3-[4-[5-(difluoromethyl)-3-pyridyl]-1H-imidazol-2-yl]chroman-6-yl]oxy-3,4-dihydro-1H-1,8-naphthyridin-2-one]",64.6 nM,1.0 % free,2.1 µL/min/mg,24.8 µL/min/mg,269 nM,–,–,–,–,–,–,–
